The source of these data is US10232013B2, “Use of an antimicrobial peptide TP4 in treating a cancer” (Academia Sinica, priority 2016, dated 2019).

The test system of series [1] is MB231 tumors. On the set-up: species or system BALB/c nu/nu mice. The conditions noted are these: in vivo. The source says: Female BALB/c nu/nu mice were obtained from BioLASCO Taiwan, Co., Ltd., and housed at the Laboratory Animal Facility, National Taiwan Ocean University, Keelung, Taiwan. Mice were maintained in pathogen-free sterile isolators, according to the guidelines of the Council of Agriculture (COA, Taiwan), and all food, water, caging, and bedding were sterilized before use. The animal protocol (103034) was approved by the Institutional Animal Care and Use Committee (IACUC) of the College of Life Science, National Taiwan Ocean University. For the TP4 treatment assay, nude mice with pre-growth MB231 tumors (n=5 for each group) were subcutaneously injected with TP4 (500 μg in 50 μL distilled water plus 10 μL KY jelly (Johnson & Johnson)) every two days for a total of fourteen times, by which time the tumors had reached an average volume of 30-50 mm^3 in size. Age-matched control nude mice without tumor xenografts were injected with KY jelly (10 μL plus 50 μL distilled water). Tumor size was calculated every two days, using the following formula: volume=[(height×length×width)×3.1416]/6. Mice were sacrificed 28 days after the beginning of TP4 treatment, and the tumors were harvested and weighed. Tumor samples were fixed with formalin and embedded with paraffin. Paraffin sections were stained by Hematoxylin & Eosin (H&E) and immunostained with Ki-67 antibody (Cell Signaling, clone D2H10, 1:100). […]

Series [2] in a line: MTS cell viability assay, M10. Format: cell-based. The conditions noted are these: human, M10 normal human mammary epithelial cells, mean±SD, read-out: Cellular toxicity (cell viability), MTS assay. As for the experimental part:
Cell-lines used in this study were purchased from the Bioresource Collection and Research Center (BCRC) in and the cells were cultured by the standard cell culture procedures and conditions provided by the BCRC. MB231 (BCRC 60425), MB453 (BCRC 60429), and HDF cells were cultured as previously described by Ting et al. MCF7 […] cells were maintained in α-MEM medium (ThermoFisher Scientific) supplemented with 2 mM L-glutamine, 10% FBS, 0.1 mM non-essential amino acids, 1 mM sodium pyruvate, and antibiotics (100 U mL^−1 penicillin G and […] streptomycin). M10 (BCRC 60197) cells were maintained in α-MEM medium (ThermoFisher Scientific) supplemented with 10% FBS and antibiotics. With the exception of MB231 and MB453, all cells were cultured at 37° C. with 5% CO2. For the cell viability and transfection assay, 1×10^4 cells [5×10^3 M10 cells were seeded and cultured for 48 h to allow the cells sufficient time for attachment] were seeded into the wells of a 96-well plate and cultured overnight. For the transfection assays, cells were transfected with 0.1-0.4 μg FOSB/FOSAB expression plasmid (Origene Technology Inc.) and cell viability was determined after 72 h. The transfection efficiencies (number of cells expressing eGFP/all cells) of the MB231 transfection assays were determined by observing ten randomly selected fields (from three independent transfections) of control GFP plasmid transfections under an inverted microscope (Olympus, IX71) coupled to a digital camera (Olympus DP80), using an […] (LCPlanFI 20×/0.40 Ph1). CellSens standard software (Olympus) was used for image acquisition. During the drug treatment assay, inhibitors (PD98059, BAPTA-AM, and AlP II) were added 30 min prior to TP4, and cell viability was determined at indicated time-points. Transfection was performed using LipofectAMINE™ 3000 (ThermoFisher Scientific), according to the manufacturer's recommendations. Knock-down cells were generated by transducing MB231 cells with pre-synthesized FOSB (or control) shRNA lentiviral particles (Santa Cruz Biotechnology), and selecting puromycin-resistant cells in accordance with the manufacturer's standard protocol. MB231 or M10 cells stably expressing eGFP or mOrange2 were generated through transfection with peGFP-puromycin or pmOrange2-C1 plasmid, followed by puromycin (5 μg mL^−1) or G418 (500 μg mL^−1) selection as described above.
Cell viability was quantitatively analyzed using the CellTiter-Glo® Luminescent Cell Viability Assay kit (ATP assay) and CellTiter 96® AQueous Non-Radioactive Cell Proliferation Assay kit (MTS assay) (Promega) in accordance with the manufacturer's protocol. For MTS assay, 1×10^4 cells were seeded into the wells of a 96-well plate and cultured overnight [5×10^3 M10 cells were seeded and cultured for 48 h to enable sufficient well attachment]. Cells were subsequently treated with different doses of TP4 (2.5-20 μg mL^−1) and harvested at the indicated time-points (3-24 h). Reaction mixtures (20 μL: MTS+PMS, using a ratio 20:1) were directly added to the cells, and the plates were incubated for 3 h at 37° C. Absorbance at 490 nm is directly proportional to the number of living cells in culture and was measured using a photometer (SpectraMax® i3, Molecular Devices). ATP assay was performed as previously described by Ting et al. Lactate dehydrogenase (LDH) assays were performed by quantitatively measuring cell lysis with a Cytotoxicity Detection Kit^PLUS (LDH) (Roche) in accordance with the manufacturer's protocol. The LDH standard was purchased from Cayman Chemical. Briefly, 1×10^4 cells were seeded into the wells of a 96-well plate and cultured overnight. Culture media were replaced with fresh medium containing 1% FBS and cells were subsequently treated with different doses of TP4 (2.5-20 μg mL^−1). Supernatants were harvested at 3 h. […]
(In general: Tetrazolium assays rely on reduction of a dye to a coloured formazan, in cell work by metabolically active cells.)

Where no end group is shown, it is not given here.

A word on the viability: it is a read-out of living cells in per cent, often relative to untreated cells. In the case of “FIHHIIGGLFSAGKAIHRLIRRRRR [TP4, tilapia piscidin 4]”, in series [1], the mouse body weight result is “no significant differences”. Also, the “body weight and adverse side-effects” value in series [1] (mouse) is recorded as “without affecting body weight or causing adverse side-effects”. In addition, the viability at 3 h, 2.5 μg/mL in series [2] (M10, TP4 2.5 μg/mL, 3 h) amounted to 101 ± 4.23%. For the same sequence, the viability at 6 h, 2.5 μg/mL in series [2] (M10, TP4 2.5 μg/mL, 6 h) worked out at 94.8 ± 7.52%. In addition, the viability at 12 h, 2.5 μg/mL in series [2] (M10, TP4 2.5 μg/mL, 12 h) is 96 ± 5.66%. For the same sequence, the viability at 24 h, 2.5 μg/mL in series [2] (M10, TP4 2.5 μg/mL, 24 h) is 94 ± 3.81%. The viability at 3 h, 5 μg/mL in series [2] (M10, TP4 5.0 μg/mL, 3 h) turned out to be 97.1 ± 4.9%. Further, the viability at 6 h, 5 μg/mL in series [2] (M10, TP4 5.0 μg/mL, 6 h) was found to be 92 ± 5.12%. Also, in series [2] (M10, TP4 5.0 μg/mL, 12 h), the viability at 12 h, 5 μg/mL was determined as 92.6 ± 4.99%. In series [2] (M10, TP4 5.0 μg/mL, 24 h), the viability at 24 h, 5 μg/mL amounted to 91.2 ± 3.99%. Further, in series [2] (M10, TP4 10.0 μg/mL, 3 h), the viability at 3 h, 10 μg/mL came out at 90.8 ± 4.76%. Also, the viability at 6 h, 10 μg/mL in series [2] (M10, TP4 10.0 μg/mL, 6 h) is 84 ± 7.47%. In addition, the viability at 12 h, 10 μg/mL in series [2] (M10, TP4 10.0 μg/mL, 12 h) came out at 83.8 ± 4.27%. Moreover, in series [2] (M10, TP4 10.0 μg/mL, 24 h), the viability at 24 h, 10 μg/mL is 80.7 ± 5.72%. Besides, the viability at 3 h, 15 μg/mL in series [2] (M10, TP4 15.0 μg/mL, 3 h) was 84.8 ± 5.83%. Moreover, the viability at 6 h, 15 μg/mL in series [2] (M10, TP4 15.0 μg/mL, 6 h) is 78.9 ± 5.57%. In addition, the viability at 12 h, 15 μg/mL in series [2] (M10, TP4 15.0 μg/mL, 12 h) was determined as 65.5 ± 6.68%. In series [2] (M10, TP4 15.0 μg/mL, 24 h), the viability at 24 h, 15 μg/mL came out at 58.4 ± 6.8%. Further, the viability at 3 h, 20 μg/mL in series [2] (M10, TP4 20.0 μg/mL, 3 h) came to 67.9 ± 5.16%. The viability at 6 h, 20 μg/mL in series [2] (M10, TP4 20.0 μg/mL, 6 h) came to 60.3 ± 4.97%. The viability at 12 h, 20 μg/mL in series [2] (M10, TP4 20.0 μg/mL, 12 h) was determined as 47.2 ± 8.42%. Further, the viability at 24 h, 20 μg/mL in series [2] (M10, TP4 20.0 μg/mL, 24 h) worked out at 44 ± 4.5%.
